Reference: ChEMBL document CHEMBL1641419, “Discovery of pyrazolo[1,5-a]pyrimidine-based CHK1 inhibitors: a template-based approach--part 2” (Bioorg Med Chem Lett, 2011)

Experiments:
[1] = molecular target: Cyclin-dependent kinase 2/cyclin A (Homo sapiens, UniProt P24941); experiment: Inhibition of recombinant CDK2/Cyclin A expressed in insect Sf9 cells assessed as inhibition of [33P]-ATP incorporation into biotinylated histone H1 after 1 hr by liquid scintillation counting
[2] = molecular target: T1, Serine/threonine-protein kinase Chk1 (Homo sapiens, UniProt O14757)
T1 sequence (O14757 whole entry): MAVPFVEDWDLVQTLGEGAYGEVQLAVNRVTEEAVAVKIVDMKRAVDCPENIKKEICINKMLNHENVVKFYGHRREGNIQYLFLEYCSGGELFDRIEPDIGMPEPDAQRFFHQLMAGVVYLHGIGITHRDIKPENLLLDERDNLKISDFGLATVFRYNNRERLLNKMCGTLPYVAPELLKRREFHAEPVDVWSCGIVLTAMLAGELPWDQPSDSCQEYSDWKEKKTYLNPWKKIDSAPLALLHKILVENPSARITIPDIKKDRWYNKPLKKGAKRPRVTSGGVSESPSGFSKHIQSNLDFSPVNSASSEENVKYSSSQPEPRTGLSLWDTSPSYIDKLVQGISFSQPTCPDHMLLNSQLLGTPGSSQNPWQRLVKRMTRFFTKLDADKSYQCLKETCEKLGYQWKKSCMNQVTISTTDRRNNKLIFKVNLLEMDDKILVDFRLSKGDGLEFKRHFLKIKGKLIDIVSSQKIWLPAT
Description: Inhibition of histidine-tagged recombinant CHK1 expressed in baculovirus expression system after 2 hrs by scintillation proximity assay

| SMILES | IC50 [1] [nM] | IC50 [2] [nM] |
| --- | --- | --- |
| Cn1cc(-c2cnn3c(N)c(-c4ccoc4)c(C4CCCNC4)nc23)cn1 (stereo not drawn) | 2300 |  |
| Cn1cc(-c2cnn3c(N)c(-c4ccccc4)c(C4CCCNC4)nc23)cn1 (stereo not drawn) | 8300 |  |
| Cn1cc(-c2c(C3CCCNC3)nc3c(-c4cnn(C)c4)cnn3c2N)cn1 (stereo not drawn) | 22000 | 100 |
| Cn1cc(-c2cnn3c(N)c(-c4ccsc4)c(C4CCCNC4)nc23)cn1 (stereo not drawn) | 2200 |  |
| Cn1cc(-c2cnn3c(N)c(Br)c(CC4CCNC4)nc23)cn1 (stereo not drawn) |  | 7 |
| Cn1cc(-c2cnn3c(N)c(C#N)c(C4CCCNC4)nc23)cn1 (stereo not drawn) | 1700 | 100 |
| Cn1cc(-c2cnn3c(N)c(Br)c(CC4CCCNC4)nc23)cn1 (stereo not drawn) |  | 7 |
| Cn1cc(-c2cnn3c(N)c(Br)c(CCN)nc23)cn1 |  | 34 |
| Cn1cc(-c2cnn3c(N)c(-c4cccnc4)c(C4CCCNC4)nc23)cn1 (stereo not drawn) | 1500 |  |
| Cn1cc(-c2cnn3c(N)c(Br)c(CC4CCNCC4)nc23)cn1 | 2800 | 87 |
| Cn1cc(-c2cnn3c(N)c(-c4ccncc4)c(C4CCCNC4)nc23)cn1 (stereo not drawn) | 11000 |  |
| COC/C=C/c1c(C2CCCNC2)nc2c(-c3cnn(C)c3)cnn2c1N (stereo not drawn) | 2200 |  |
| Cn1cc(-c2cnn3c(N)c(Br)c(C4CCCCN4)nc23)cn1 (stereo not drawn) | 28700 | 2900 |

Other lines, results leading:

| IC50 [1] [nM] | IC50 [2] [nM] | SMILES |
| --- | --- | --- |
| 440 | 5 | Cn1cc(-c2cnn3c(N)c(Br)c(C[C@H]4CCC[C@@H](N)C4)nc23)cn1 (relative stereo) |
| 1200 | 130 | Cn1cc(-c2cnn3c(N)c(Br)c(C4CNCCO4)nc23)cn1 (stereo not drawn) |
| 160 |  | Cn1cc(-c2cnn3c(N)c(Br)c(C4CCCNC4)nc23)cn1 (stereo not drawn) |
| 170 | 17 | Nc1c(Br)c(C2CCCNC2)nc2c(-c3cccnc3)cnn12 (stereo not drawn) |
| 170 |  | Cn1cc(-c2cnn3c(N)c(C4CC4)c(C4CCCNC4)nc23)cn1 (stereo not drawn) |
| 330 |  | Cn1cc(-c2cnn3c(N)c(I)c(C4CCCNC4)nc23)cn1 (stereo not drawn) |
| 310 | 3 | Cn1cc(-c2cnn3c(N)c(Cl)c(C4CCCNC4)nc23)cn1 (stereo not drawn) |
| 510 | 31 | Cn1cc(-c2cnn3c(N)c(Br)c(C4CCNC4)nc23)cn1 (stereo not drawn) |
| 520 |  | CC#Cc1c(C2CCCNC2)nc2c(-c3cnn(C)c3)cnn2c1N (stereo not drawn) |
| 200 | 8 | Cc1ncc(-c2cnn3c(N)c(Br)c(C4CCCNC4)nc23)s1 (stereo not drawn) |
| 48 | 26 | Cn1cc(-c2cnn3c(N)c(CCO)c(C4CCCNC4)nc23)cn1 (stereo not drawn) |
| 990 |  | Cn1cc(-c2cnn3c(N)c(-c4cccs4)c(C4CCCNC4)nc23)cn1 (stereo not drawn) |
| 1300 | 4000 | Cn1cc(-c2cnn3c(N)c(Br)c(-c4cccnc4)nc23)cn1 |
| 330 |  | CCc1c(C2CCCNC2)nc2c(-c3cnn(C)c3)cnn2c1N (stereo not drawn) |
| 490 | 35 | Cn1cc(-c2cnn3c(N)c(Br)c(C4CCNCC4)nc23)cn1 |
| 150 |  | Cn1cc(-c2cnn3c(N)c(Br)c(C4CNCCS4)nc23)cn1 (stereo not drawn) |
| 100 |  | Nc1c(Br)c(C2CCCNC2)nc2c(-c3ccoc3)cnn12 (stereo not drawn) |
